Results: PubChem BioAssay (NCI)
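Results reflect a 48-hour exposure of cells in 96-well plates to compound at five concentrations. GI50 marks 50% less growth. TGI denotes the concentration required for complete inhibition of growth.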

Assays:
Test in all cases: growth of human tumour cells (NCI), 48 h
[1] = system: A498 renal
[2] = system: M14 melanoma
[3] = system: HOP-92 NSCLC
[4] = system: HOP-18 NSCLC
[5] = system: ACHN renal
[6] = system: MOLT-4 leukemia
[7] = system: HCC-2998 colon
[8] = system: NCI-H460 lung
[9] = system: OVCAR-4 ovarian
[10] = system: SK-MEL-28 melanoma
[11] = system: SF-268 CNS
[12] = system: LXFL 529 NSCLC
[13] = system: U251 CNS
[14] = system: UO-31 renal
[15] = system: HCT-116 colon
[16] = system: SN12C renal
[17] = system: TK-10 renal
[18] = system: OVCAR-8 ovarian
[19] = system: COLO 205 colon
[20] = system: SNB-75 CNS
[21] = system: UACC-62 melanoma
[22] = system: KM12 colon
[23] = system: SK-MEL-2 melanoma
[24] = system: NCI-H226 lung
[25] = system: HCT-15 colon
[26] = system: SF-539 CNS
[27] = system: A549 NSCLC
[28] = system: KM20L2 colon
[29] = system: RXF 393 renal
[30] = system: SNB-78 CNS
[31] = system: OVCAR-5 ovarian
[32] = system: MALME-3M melanoma
[33] = system: HOP-62 NSCLC
[34] = system: HL-60(TB) leukemia
[35] = system: SK-OV-3 ovarian
[36] = system: HT29 colon
[37] = system: UACC-257 melanoma
[38] = system: NCI-H23 lung
[39] = system: EKVX NSCLC
[40] = system: NCI-H522 lung
[41] = system: IGROV1 ovarian
[42] = system: M19-MEL melanoma
[43] = system: CCRF-CEM leukemia
[44] = system: DMS 273 small cell lung
[45] = system: SR leukemia
[46] = system: K-562 leukemia
[47] = system: SK-MEL-5 melanoma
[48] = system: SF-295 CNS
[49] = system: SW-620 colon
[50] = system: LOX IMVI melanoma
[51] = system: 786-0 renal
[52] = system: OVCAR-3 ovarian
[53] = system: SNB-19 CNS
[54] = system: DU-145 prostate
[55] = system: NCI/ADR-RES ovarian
[56] = system: MCF7 breast
[57] = system: BT-549 breast
[58] = system: RPMI-8226 leukemia
[59] = system: MDA-MB-435
[60] = system: PC-3 prostate
[61] = system: HS 578T breast
[62] = system: MDA-N
[63] = system: MDA-MB-231 breast
[64] = system: DLD-1 colon

C[CH2][Sn]([CH2]C)([O]C(=O)c1c(F)cccc1F)[O][Sn]([CH2]C)([CH2]C)[O]C(=O)c1c(F)cccc1F
GI50 [1]: 15 µM | TGI [1]: 28.3 µM | GI50 [2]: 18.1 µM | TGI [2]: 32 µM | GI50 [3]: 18.8 µM | TGI [3]: 32.9 µM | GI50 [4]: 22.6 µM | TGI [4]: 37.1 µM | GI50 [5]: 19.1 µM | TGI [5]: 33.2 µM | GI50 [6]: 23.4 µM | TGI [6]: 88.3 µM | GI50 [7]: 42.8 µM | TGI [7]: > 100 µM | GI50 [8]: 20 µM | TGI [8]: 40.6 µM | GI50 [9]: 18.8 µM | TGI [9]: 33 µM | GI50 [10]: 15.6 µM | TGI [10]: 29 µM | GI50 [11]: 15.3 µM | TGI [11]: 28.6 µM | GI50 [12]: 5.44 µM | TGI [12]: 18.4 µM | GI50 [13]: 17.4 µM | TGI [13]: 31.2 µM | GI50 [14]: 36 µM | TGI [14]: > 100 µM | GI50 [15]: 19 µM | TGI [15]: 34 µM | GI50 [16]: 16 µM | TGI [16]: 29.5 µM | GI50 [17]: 19.2 µM | TGI [17]: 33.3 µM | GI50 [18]: 17.2 µM | TGI [18]: 30.9 µM | GI50 [19]: 12.6 µM | TGI [19]: 25.1 µM | GI50 [20]: 16.2 µM | TGI [20]: 29.7 µM | GI50 [21]: 17.6 µM | TGI [21]: 31.4 µM | GI50 [22]: > 100 µM | TGI [22]: > 100 µM | GI50 [23]: 14.4 µM | TGI [23]: 27.7 µM | GI50 [24]: 22 µM | TGI [24]: 36.7 µM | GI50 [25]: 17.9 µM | TGI [25]: 32.5 µM | GI50 [26]: 14.9 µM | TGI [26]: 28.1 µM | GI50 [27]: > 100 µM | TGI [27]: > 100 µM | GI50 [28]: 26.7 µM | TGI [28]: 68.8 µM | GI50 [29]: 13.7 µM | TGI [29]: 26.6 µM | GI50 [30]: 15.8 µM | TGI [30]: 32.4 µM | GI50 [31]: 17.9 µM | TGI [31]: 31.8 µM | GI50 [32]: 14.9 µM | TGI [32]: 28.8 µM | GI50 [33]: 20.8 µM | TGI [33]: 36.9 µM | GI50 [34]: 26.5 µM | TGI [34]: 76.7 µM | GI50 [35]: 41.3 µM | TGI [35]: > 100 µM | GI50 [36]: 19.8 µM | TGI [36]: 42.2 µM | GI50 [37]: 16.5 µM | TGI [37]: 30.2 µM | GI50 [38]: 15.9 µM | TGI [38]: 29.3 µM | GI50 [39]: 16.8 µM | TGI [39]: 30.6 µM | GI50 [40]: 1.1 µM | TGI [40]: 2.36 µM | GI50 [41]: 69 µM | TGI [41]: > 100 µM | GI50 [42]: 16.3 µM | TGI [42]: 30.9 µM | GI50 [43]: 3.85 µM | TGI [43]: 17.1 µM | GI50 [44]: 18.6 µM | TGI [44]: 35.2 µM | GI50 [45]: 26.6 µM | TGI [45]: > 100 µM | GI50 [46]: 8.61 µM | TGI [46]: 37.5 µM | GI50 [47]: 18.2 µM | TGI [47]: 32.3 µM | GI50 [48]: 20.1 µM | TGI [48]: 34.5 µM | GI50 [49]: 16.3 µM | TGI [49]: 29.9 µM | GI50 [50]: 16.1 µM | TGI [50]: 29.9 µM | GI50 [51]: 16 µM | TGI [51]: 29.7 µM | GI50 [52]: 25.9 µM | TGI [52]: 78.1 µM | GI50 [53]: 17.1 µM | TGI [53]: 30.8 µM

COc1ccc(/C=N/N/C(O)=c2/sc(=C(C#N)C#N)n(-c3ccccc3)c2=N)cc1
TGI [1]: > 100 µM | TGI [2]: > 100 µM | TGI [3]: > 70.8 µM | TGI [4]: > 100 µM | TGI [5]: > 100 µM | TGI [6]: > 100 µM | TGI [7]: > 100 µM | TGI [54]: > 100 µM | TGI [8]: > 100 µM | TGI [55]: > 100 µM | TGI [9]: > 100 µM | TGI [10]: > 100 µM | TGI [11]: > 100 µM | TGI [12]: > 100 µM | TGI [13]: > 100 µM | TGI [14]: > 100 µM | TGI [15]: > 100 µM | TGI [56]: > 100 µM | TGI [16]: > 100 µM | TGI [57]: > 100 µM | TGI [17]: > 100 µM | TGI [18]: > 100 µM | TGI [58]: > 100 µM | TGI [19]: > 100 µM | TGI [20]: 38.3 µM | TGI [21]: > 100 µM | TGI [22]: > 100 µM | TGI [59]: > 100 µM | TGI [24]: > 100 µM | TGI [60]: > 100 µM | TGI [25]: > 100 µM | TGI [26]: > 88.6 µM | TGI [61]: > 100 µM | TGI [27]: > 100 µM | TGI [31]: > 100 µM | TGI [32]: > 100 µM | TGI [33]: > 94 µM | TGI [34]: > 100 µM | TGI [35]: > 100 µM | TGI [36]: > 100 µM | TGI [37]: > 100 µM | TGI [38]: > 100 µM | TGI [39]: > 100 µM | TGI [40]: > 100 µM | TGI [41]: > 100 µM | TGI [62]: > 100 µM | TGI [42]: > 100 µM | TGI [43]: > 100 µM | TGI [45]: > 100 µM | TGI [46]: > 100 µM | TGI [47]: > 100 µM | TGI [48]: > 70.5 µM | TGI [49]: > 100 µM | TGI [63]: > 100 µM | TGI [51]: > 100 µM | TGI [52]: > 100 µM | TGI [64]: > 100 µM | TGI [53]: > 100 µM
